How the values were obtained:
Endothelin-1 receptor = target: T1, Endothelin-1 receptor (Rattus norvegicus, UniProt P26684); experiment: In vitro ability to inhibit specific [125I]ET1 binding to rat aorta membranes Endothelin A receptor; type: tissue-based
T1 sequence (P26684 whole entry): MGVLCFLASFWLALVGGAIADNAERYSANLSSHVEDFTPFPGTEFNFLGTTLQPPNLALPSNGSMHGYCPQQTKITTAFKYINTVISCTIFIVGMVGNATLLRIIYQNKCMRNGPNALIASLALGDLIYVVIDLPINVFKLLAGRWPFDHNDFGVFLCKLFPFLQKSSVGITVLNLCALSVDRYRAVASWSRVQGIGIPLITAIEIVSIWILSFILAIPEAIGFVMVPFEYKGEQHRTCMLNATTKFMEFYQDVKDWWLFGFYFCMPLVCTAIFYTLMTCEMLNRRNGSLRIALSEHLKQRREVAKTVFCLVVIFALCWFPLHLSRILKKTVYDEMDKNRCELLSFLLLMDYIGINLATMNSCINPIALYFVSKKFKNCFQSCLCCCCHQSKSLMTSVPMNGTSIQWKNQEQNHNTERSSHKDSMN

[1] = target: T2, Endothelin receptor type B (Sus scrofa, UniProt P35463); experiment: In vitro ability to inhibit specific [125I]ET1 binding to porcine kidney (inner medulla) membranes Endothelin B receptor
T2 sequence (P35463 whole entry): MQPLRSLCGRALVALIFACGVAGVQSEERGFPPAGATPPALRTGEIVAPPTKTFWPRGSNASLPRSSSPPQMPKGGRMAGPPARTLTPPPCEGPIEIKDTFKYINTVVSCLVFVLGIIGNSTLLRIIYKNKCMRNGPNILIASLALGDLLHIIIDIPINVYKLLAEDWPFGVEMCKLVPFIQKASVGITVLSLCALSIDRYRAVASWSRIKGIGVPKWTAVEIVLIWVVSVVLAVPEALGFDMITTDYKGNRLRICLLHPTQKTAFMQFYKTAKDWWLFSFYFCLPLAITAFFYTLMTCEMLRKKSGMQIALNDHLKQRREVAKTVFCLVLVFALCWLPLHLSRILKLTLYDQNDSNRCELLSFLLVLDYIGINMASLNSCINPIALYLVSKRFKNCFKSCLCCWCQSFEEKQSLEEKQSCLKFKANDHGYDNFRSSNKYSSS

IC50 (Endothelin-1 receptor) [nM]	IC50 [1] [nM]	Compound
1	180	COc1ccc(C(=O)/C(Cc2cc(OC)c(OC)c(OC)c2)=C(\C(=O)O)c2ccc3nsnc3c2)cc1Cl
7.4	4550	COc1ccc(C(=O)/C(Cc2ccccc2)=C(\C(=O)O)c2ccc3c(c2)OCO3)cc1
12		COc1cc(F)ccc1C(=O)/C(Cc1cc(OC)c(OC)c(OC)c1)=C(\C(=O)O)c1ccc2nsnc2c1
3.4	1000	COc1ccc(C(=O)/C(Cc2cccc(OC)c2)=C(\C(=O)O)c2ccc3nsnc3c2)cc1
1.4	260	COc1ccc(C(=O)/C(Cc2cc(OC)c(OC)c(OC)c2)=C(\C(=O)O)c2ccc3nsnc3c2)cc1C
160	1900	COc1cc(C/C(C(=O)c2ccc(OC(F)F)cc2)=C(/C(=O)O)c2ccc3nsnc3c2)cc(OC)c1OC
